Data published in patent US10233205B2, “Magnetic resonance imaging contrast agent capable of detecting hydrogen peroxide and reducing reactive oxygen species” (Auburn University, priority 2015, dated 2019).

Legend:
[1] = Superoxide scavenging, hypoxanthine-xanthine oxidase / lucigenin luminescence; type: biochemical; settings: 50 mM Tris-HCl pH 8.0
Protocol: Superoxide was produced in situ from a reaction between xanthine and xanthine oxidase. The subsequent reaction of the O2^− with lucigenin provided a spectroscopic signal that can be used to provide a qualitative measure of an anti-oxidant's ability to degrade O2^−. The copper/zinc superoxide dismutase isolated from bovine erythrocytes (0.001-100 U/ml, Calbiochem) was used as a positive control. The assay was carried out in a total volume of 1 mL containing 50 mM tris (pH 8.0), hypoxanthine (50 μM), xanthine oxidase (0.005 U/ml, Calbiochem) and dark adapted lucigenin (5 μM) in the presence of a complex (0.1 nM-10 μM) or their vehicle. Reactions were carried out at room temperature and were initiated by the addition of xanthine oxidase to the hypoxanthine-containing solution. Luminescence was measured using a TD-20/20 (Turner Designs) luminometer and expressed as relative light units (RLU). Luminescence was measure for four 10 s integrations after an initial delay of 3 s. The four RLU values were averaged, and each concentration was expressed as a percent of that produced in the presence of vehicle. Each assay data point was performed in duplicate and assays were repeated three times.
Superoxide was generated using a hypoxanthine-xanthine oxidase reaction and detected using the chemiluminescent probe lucigenin. Reactions were carried out in 50 mM Tris-HCl (pH 8.0) containing either 1, 2, or Cu/Zn SOD from bovine erythrocytes (insert). Data for the various concentrations of 1, 2, and SOD are expressed as a percentage of luminescence in the presence of vehicle.
The ability of 3 to degrade superoxide was tested using a standard technique that uses the reaction between xanthine oxidase and xanthine to generate O2^− and a subsequent reaction with the chemiluminescent probe lucigenin to detect it. Reactions were carried out in 50 mM Tris-HCl (pH 8.0). Data for the various concentrations of Mn(II) complex are expressed as a percentage of luminescence in the presence of vehicle.

[2] = T1-weighted relaxivity (r1) on 3 T clinical MRI scanner; type: physicochemical; settings: for r1 after addition of H2O2 / r1, second series of experiments, after H2O2 (oxidized form) / r1, second series of experiments, before H2O2 (reduced form) / r1 (T1-weighted relaxivity): 50 mM HEPES pH 7.00, 3 T; for r1 after addition of H2O2 / r1 (T1-weighted relaxivity): 25° C.; for r1, second series of experiments, after H2O2 (oxidized form) / r1, second series of experiments, before H2O2 (reduced form): 298 K; for r1 (T1-weighted relaxivity): no oxidant
Text: All MRI data were collected at the Auburn University MRI Research Center (Auburn, Ala.) on a Siemens Verio open-bore 3-T MRI clinical scanner. A 15-channel knee coil was used to simultaneously image 12-26 samples. An inversion recovery (IR) sequence was used that featured a non-selective adiabatic inversion pulse followed by a slice-selective gradient recalled echo (GRE) readout after a delay period corresponding to the inversion time (TI).^1-2 The GRE was a saturation readout, such that only one line of k-space was acquired per repetition time (TR). This method was selected to maximize both the signal strength and the accuracy of the T1 estimates. Specific imaging parameters were as follows: TR was set to 4 s, TI was varied from 4.8 to 2500 ms over 37 steps, the echo time (TE) was set to 3.6 ms, the flip angle equaled 90°, averages=1, slice thickness=5 mm, field of view=140×140 mm, matrix=128×128, resulting in a pixel size of 1.1×1.1×5.0 mm. All samples were run in 50 mM solutions of HEPES in water, buffered to pH 7.0 and kept at […]. The manganese content was systematically varied from 0.10 to 1.00 mM. The inverses of the T1 values were plotted versus the concentration of Mn(II) to obtain r1 values. All reported r1 values are averages from the results of two separate series of experiments. Each series of experiments used a different batch of 1.
Image analysis was performed using custom Matlab programs (Mathworks, Natick, Mass.). The initial TI=4.8 ms image served as a baseline to determine circular region of interest (ROI) boundaries for each sample; from these, the mean pixel magnitudes for each ROI were calculated. For each of the 36 subsequent TI images, the same ROI boundaries were applied and the mean pixel magnitude calculations were repeated. This gave consistent ROI spatial definitions and a corresponding time course of magnitudes for each of the samples over all the TI time points. Each sample's complex phase was used to correct the magnitude polarity to produce a complete exponential T1 inversion recovery curve. The Nelder-Mead simplex algorithm^3 was applied to each sample's exponential curve to estimate its corresponding T1 value.
(§1) For the relaxivity measurements, all samples were run in 298 K aqueous solutions containing 50 mM HEPES buffered to pH 7.00, using a 3 T field provided by a clinical MRI scanner. The data were fit to the indicated linear equations; the y-intercepts were within error of 1/T1 measurements associated with two control samples that contained no Mn(II): (A) 10 mM H2O2 in 50 mM HEPES buffer and (B) pure 50 mM HEPES buffer (both 0.46 s^−1).
as §1, with “All” for “For the relaxivity measurements, all”, “s^−1). The oxidation of 1 by 2,3-dichloro-5,6-dicyano-1,4-benzoquinone (DDQ) occurred in CH2Cl2. After the reaction occurred, the 2,3-dichloro-5,6-dicyanoquinol product was removed via filtration, the CH2Cl2 was removed, and the sample was dissolve in HEPES buffer for MRI analysis. The other oxidation reactions occurred entirely in HEPES buffer.” for “s^−1).”
The capability of 3 to serve as a MRI contrast agent was assessed with a 3 T clinical MRI scanner. All samples were run in 298 K aqueous solutions containing 50 mM HEPES buffered to pH 7.00, using a 3 T field provided by a clinical MRI scanner. All samples were prepared under air. The oxidized samples were prepared by directly adding H2O2 to solutions of 3 in aqueous solutions buffered to pH 7.0. The oxidation reactions were allowed to proceed for 30 min at 298 K before the T1 measurements were taken. […]

Molecule	superoxide scavenging [1]	increase of relaxivity upon exposure to H2O2 [2] [%]	r1 response to H2O2 ([2]; 10 mM H2O2) [mM⁻¹ s⁻¹]	r1 after addition of H2O2 ([2]; 10 mM H2O2)	r1, second series of experiments, after H2O2 (oxidized form) ([2]; 10 mM H2O2) [mM⁻¹ s⁻¹]	r1, second series of experiments, before H2O2 (reduced form) [2] [mM⁻¹ s⁻¹]	r1 (T1-weighted relaxivity) [2]
cis-Dibromo(N,N′-bis(2,5-dihydroxybenzyl)-N,N′-bis(2-pyridinylmethyl)-1,2-ethanediamine)manganese(II) [Complex 3]	successfully intercepts O2^−	31	1.71	7.17 (+0.15) mM^−1 s^−1	7.32	5.64	5.46 (+0.19) mM^−1 s^−1
CC#N.O=S(=O)([O-])C(F)(F)F.O=S(=O)([O-])C(F)(F)F.[Mn+2].[O-]c1ccc(O)cc1CN(CCN(Cc1ccccn1)Cc1ccccn1)Cc1ccccn1 [Complex 1, Acetonitrilo(N-(2,5-dihydroxy-benzyl)-N,N′,N′-tris(2-pyridinylmethyl)-1,2-ethanediamine)manganese(II) triflate]	successfully intercepts O2^−	–	–	5.30 mM⁻¹ s⁻¹	5.30	4.73	4.73 mM⁻¹ s⁻¹
CC#N.Cc1ccc(O)c(CN(CCN(Cc2ccccn2)Cc2ccccn2)Cc2ccccn2)c1.[Mn+2].[O-][Cl+3]([O-])([O-])[O-].[O-][Cl+3]([O-])([O-])[O-] [Complex 2, reference compound]	successfully intercepts O2^−	–	–	–	–	–	4.39 mM⁻¹ s⁻¹
